Where a SMILES comes first, the peptide text is derived from it. [ ]: non-standard residue; d: D form. pGlu = O=C1CC[C@@H](C(=O)O)N1
Test system: male Hartley guinea pig
Assay: Toxicity (Experiment 3)
Type: in vivo
Details: FTS 100 mg/kg
Procedure: Toxicity was studied by treating a male Hartley guinea pig with FTS at a dose of 100 mg/kg and observing the animal for one-week. This animal was still alive at the end of one-week observation period.

C[C@H](NC(=O)[C@@H]1CCC(=O)N1)C(=O)N[C@@H](CCCCN)C(=O)N[C@@H](CO)C(=O)N[C@@H](CCC(N)=O)C(=O)NCC(=O)NCC(=O)N[C@@H](CO)C(=O)N[C@@H](CC(N)=O)C(=O)O [FTS, p-Glu-Ala-Lys-Ser-Gln-Gly-Gly-Ser-Asn-Oh] ([pGlu]AKSQGGSN-OH)
Toxicity: survival at the end of one-week observation: still alive

— patent US5112810A, “Method for treating multiple sclerosis” (Mitsui Pharmaceuticals, Inc., priority 1981, dated 1992)
